# Reference: PubChem BioAssay (NCI)
#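 Protocol summary: plate cells (96-well), add compound at 5 concentrations, incubate 48 h, interpolate endpoints linearly. TGI is the concentration that stops growth completely.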
# Tests used:
# Assay in all cases: inhibition of tumour cell growth, NCI panel, 48 h
# NCI/ADR-RES ovarian = test system: NCI/ADR-RES ovarian
# LOX IMVI melanoma = test system: LOX IMVI melanoma
# RPMI-8226 leukemia = test system: RPMI-8226 leukemia
# SK-MEL-2 melanoma = test system: SK-MEL-2 melanoma
# PC-3 prostate = test system: PC-3 prostate
# SN12C renal = test system: SN12C renal
# BT-549 breast = test system: BT-549 breast
# NCI-H23 lung = test system: NCI-H23 lung
# NCI-H522 lung = test system: NCI-H522 lung
# A498 renal = test system: A498 renal
# COLO 205 colon = test system: COLO 205 colon
# MDA-MB-435 = test system: MDA-MB-435
# OVCAR-4 ovarian = test system: OVCAR-4 ovarian
# MOLT-4 leukemia = test system: MOLT-4 leukemia
# ACHN renal = test system: ACHN renal
# OVCAR-8 ovarian = test system: OVCAR-8 ovarian
# IGROV1 ovarian = test system: IGROV1 ovarian
# MCF7 breast = test system: MCF7 breast
# RXF 393 renal = test system: RXF 393 renal
# SK-MEL-28 melanoma = test system: SK-MEL-28 melanoma
# UACC-62 melanoma = test system: UACC-62 melanoma
# UACC-257 melanoma = test system: UACC-257 melanoma
# DU-145 prostate = test system: DU-145 prostate
# MDA-MB-231 breast = test system: MDA-MB-231 breast
# KM12 colon = test system: KM12 colon
# HS 578T breast = test system: HS 578T breast
# HL-60(TB) leukemia = test system: HL-60(TB) leukemia
# K-562 leukemia = test system: K-562 leukemia
# HOP-62 NSCLC = test system: HOP-62 NSCLC
# OVCAR-5 ovarian = test system: OVCAR-5 ovarian
# SNB-75 CNS = test system: SNB-75 CNS
# SNB-19 CNS = test system: SNB-19 CNS
# NCI-H226 lung = test system: NCI-H226 lung
# TK-10 renal = test system: TK-10 renal
# HT29 colon = test system: HT29 colon
# MALME-3M melanoma = test system: MALME-3M melanoma
# U251 CNS = test system: U251 CNS
# MDA-N = test system: MDA-N
# CAKI-1 renal = test system: CAKI-1 renal
# SF-539 CNS = test system: SF-539 CNS
# SF-295 CNS = test system: SF-295 CNS
# HCC-2998 colon = test system: HCC-2998 colon
# M14 melanoma = test system: M14 melanoma
# HCT-15 colon = test system: HCT-15 colon
# 786-0 renal = test system: 786-0 renal
# HCT-116 colon = test system: HCT-116 colon
# UO-31 renal = test system: UO-31 renal
# OVCAR-3 ovarian = test system: OVCAR-3 ovarian
# SR leukemia = test system: SR leukemia
# HOP-92 NSCLC = test system: HOP-92 NSCLC
# A549 NSCLC = test system: A549 NSCLC
# SK-MEL-5 melanoma = test system: SK-MEL-5 melanoma
# SF-268 CNS = test system: SF-268 CNS
# SK-OV-3 ovarian = test system: SK-OV-3 ovarian
# SW-620 colon = test system: SW-620 colon
# T-47D breast = test system: T-47D breast
# NCI-H460 lung = test system: NCI-H460 lung
# CCRF-CEM leukemia = test system: CCRF-CEM leukemia
smiles,measurement,setting,value
CC(=O)OCC12C(OC(C)=O)C[C@@H](C)C3(CC(c4ccoc4)OC3=O)C1CCC(O)C21CO1 (stereo not given in full),TGI,NCI/ADR-RES ovarian,> 100 µM
same,TGI,LOX IMVI melanoma,> 100 µM
same,TGI,RPMI-8226 leukemia,> 100 µM
same,TGI,SK-MEL-2 melanoma,> 100 µM
same,TGI,PC-3 prostate,> 100 µM
same,TGI,SN12C renal,> 100 µM
same,TGI,BT-549 breast,> 100 µM
same,TGI,NCI-H23 lung,> 100 µM
same,TGI,NCI-H522 lung,> 100 µM
same,TGI,A498 renal,> 100 µM
same,TGI,COLO 205 colon,> 100 µM
same,TGI,MDA-MB-435,> 100 µM
same,TGI,OVCAR-4 ovarian,> 100 µM
same,TGI,MOLT-4 leukemia,> 100 µM
same,TGI,ACHN renal,> 100 µM
same,TGI,OVCAR-8 ovarian,> 100 µM
same,TGI,IGROV1 ovarian,> 100 µM
same,TGI,MCF7 breast,> 100 µM
same,TGI,RXF 393 renal,> 100 µM
same,TGI,SK-MEL-28 melanoma,> 100 µM
same,TGI,UACC-62 melanoma,> 100 µM
same,TGI,UACC-257 melanoma,> 100 µM
same,TGI,DU-145 prostate,> 100 µM
same,TGI,MDA-MB-231 breast,> 100 µM
same,TGI,KM12 colon,> 100 µM
same,TGI,HS 578T breast,> 100 µM
same,TGI,HL-60(TB) leukemia,> 100 µM
same,TGI,K-562 leukemia,> 100 µM
same,TGI,HOP-62 NSCLC,> 100 µM
same,TGI,OVCAR-5 ovarian,> 100 µM
same,TGI,SNB-75 CNS,> 100 µM
same,TGI,SNB-19 CNS,> 100 µM
same,TGI,NCI-H226 lung,> 100 µM
same,TGI,TK-10 renal,> 100 µM
same,TGI,HT29 colon,> 100 µM
same,TGI,MALME-3M melanoma,> 100 µM
same,TGI,U251 CNS,> 100 µM
same,TGI,MDA-N,> 100 µM
same,TGI,CAKI-1 renal,> 100 µM
same,TGI,SF-539 CNS,> 100 µM
same,TGI,SF-295 CNS,> 100 µM
same,TGI,HCC-2998 colon,> 100 µM
same,TGI,M14 melanoma,> 100 µM
same,TGI,HCT-15 colon,> 100 µM
same,TGI,786-0 renal,> 100 µM
same,TGI,HCT-116 colon,> 100 µM
same,TGI,UO-31 renal,> 100 µM
same,TGI,OVCAR-3 ovarian,> 100 µM
same,TGI,SR leukemia,> 100 µM
same,TGI,HOP-92 NSCLC,> 100 µM
same,TGI,A549 NSCLC,> 100 µM
same,TGI,SK-MEL-5 melanoma,> 100 µM
same,TGI,SF-268 CNS,> 100 µM
CC(=O)O[C@H]1CC[C@@]2(C)C(=CC[C@@H]3[C@@H]2CC[C@]2(C)C(=N/O)/C(=C/c4ccc([N+](=O)[O-])cc4)C[C@@H]32)C1,TGI,NCI/ADR-RES ovarian,> 100 µM
same,TGI,LOX IMVI melanoma,> 100 µM
same,TGI,RPMI-8226 leukemia,> 100 µM
same,TGI,SK-MEL-2 melanoma,17.5 µM
same,TGI,PC-3 prostate,> 100 µM
same,TGI,SK-OV-3 ovarian,> 100 µM
same,TGI,SN12C renal,87.3 µM
same,TGI,BT-549 breast,14 µM
same,TGI,NCI-H23 lung,13.2 µM
same,TGI,NCI-H522 lung,8.94 µM
same,TGI,A498 renal,25.5 µM
same,TGI,COLO 205 colon,10 µM
same,TGI,MDA-MB-435,29.3 µM
same,TGI,OVCAR-4 ovarian,> 100 µM
same,TGI,MOLT-4 leukemia,> 100 µM
same,TGI,ACHN renal,> 100 µM
same,TGI,IGROV1 ovarian,55.8 µM
same,TGI,RXF 393 renal,> 100 µM
same,TGI,SK-MEL-28 melanoma,> 100 µM
same,TGI,UACC-62 melanoma,20.5 µM
same,TGI,UACC-257 melanoma,1.55 µM
same,TGI,DU-145 prostate,31.4 µM
same,TGI,SW-620 colon,> 100 µM
same,TGI,MDA-MB-231 breast,50.1 µM
same,TGI,KM12 colon,> 100 µM
same,TGI,HS 578T breast,8.46 µM
same,TGI,HL-60(TB) leukemia,66.1 µM
same,TGI,K-562 leukemia,> 100 µM
same,TGI,HOP-62 NSCLC,> 100 µM
same,TGI,SNB-75 CNS,40.5 µM
same,TGI,SNB-19 CNS,37.1 µM
same,TGI,NCI-H226 lung,67.7 µM
same,TGI,TK-10 renal,55.3 µM
same,TGI,HT29 colon,> 100 µM
same,TGI,T-47D breast,2.46 µM
same,TGI,MALME-3M melanoma,> 100 µM
same,TGI,NCI-H460 lung,> 100 µM
same,TGI,MDA-N,> 100 µM
same,TGI,CAKI-1 renal,6.1 µM
same,TGI,SF-539 CNS,> 100 µM
same,TGI,SF-295 CNS,20.7 µM
same,TGI,M14 melanoma,47.7 µM
same,TGI,HCT-15 colon,> 100 µM
same,TGI,786-0 renal,27.3 µM
same,TGI,HCT-116 colon,> 100 µM
same,TGI,UO-31 renal,26 µM
same,TGI,OVCAR-3 ovarian,11.3 µM
same,TGI,HOP-92 NSCLC,62 µM
same,TGI,A549 NSCLC,> 100 µM
same,TGI,SK-MEL-5 melanoma,7.95 µM
same,TGI,CCRF-CEM leukemia,> 100 µM
same,TGI,SF-268 CNS,> 100 µM
